Source: publication PMC5290997 (Bioconjugate chemistry, 2016)

Experiments:
PSMA = PSMA (Homo sapiens, UniProt Q04609); experiment: PSMA inhibition assay; assay type: biochemical; conditions: LNCaP cell lysates, 4 µM NAAG, Cheng-Prusoff conversion
[1] = chelating agent for ^68Ga; cited from earlier work

Sequence of PSMA (Q04609 whole entry): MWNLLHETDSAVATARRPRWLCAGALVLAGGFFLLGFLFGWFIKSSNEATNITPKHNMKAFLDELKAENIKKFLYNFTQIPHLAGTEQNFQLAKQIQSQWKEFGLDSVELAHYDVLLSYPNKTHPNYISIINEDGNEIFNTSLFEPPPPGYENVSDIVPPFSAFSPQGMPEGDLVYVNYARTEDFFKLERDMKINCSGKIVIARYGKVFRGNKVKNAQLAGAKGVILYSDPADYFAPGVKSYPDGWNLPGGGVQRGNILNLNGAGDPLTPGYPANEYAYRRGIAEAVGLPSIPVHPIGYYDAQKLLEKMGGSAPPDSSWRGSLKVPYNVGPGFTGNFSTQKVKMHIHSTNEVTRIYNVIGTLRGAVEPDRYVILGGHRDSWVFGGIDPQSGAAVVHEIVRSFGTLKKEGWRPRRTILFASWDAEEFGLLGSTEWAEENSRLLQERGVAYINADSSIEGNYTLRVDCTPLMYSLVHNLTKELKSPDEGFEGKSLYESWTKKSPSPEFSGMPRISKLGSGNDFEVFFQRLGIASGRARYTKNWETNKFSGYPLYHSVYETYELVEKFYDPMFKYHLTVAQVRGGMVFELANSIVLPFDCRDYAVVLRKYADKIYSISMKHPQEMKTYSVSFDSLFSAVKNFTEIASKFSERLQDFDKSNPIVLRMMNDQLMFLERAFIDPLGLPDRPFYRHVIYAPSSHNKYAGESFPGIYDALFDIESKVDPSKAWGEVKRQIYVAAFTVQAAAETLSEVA

SMILES	Ki (PSMA)	stability constant, KML [1]
O=C(O)CCc1ccc(O)c(CN(CCN(CC(=O)O)Cc2cc(CCC(=O)NCCCCCC(=O)NCCCC[C@H](NC(=O)N[C@@H](CCC(=O)O)C(=O)O)C(=O)O)ccc2O)CC(=O)O)c1 [DKFZ-PSMA-11, Glu-urea-Lys-(Ahx)-HBED-CC]	0.03 nM	–
O=C(O)CN1CCN(CC(=O)O)CCN(CC(=O)O)CCN(CC(=O)O)CC1 [DOTA]	–	21.3
O=C(O)CN1CCN(CC(=O)O)CCN(CC(=O)O)CC1 [NOTA, 1,4,7-triazacyclononane-1,4,7-triacetic acid]	–	31.1
